Earlier results in patent US20240174947A1, “SURFACTANT COMPOSITIONS” (LANKEM LTD., priority 2021, published 2024).

Test system: reconstructed human epidermis (RhE)
Conditions: for ET50: typical reference ET50 irritancy results for commonly used anionic and amphoteric surfactants; for Classification (expected in vivo irritancy): typical reference results for commonly used anionic and amphoteric surfactants, assigned from ET50

Row | Molecule | ET50 [h] | Classification (expected in vivo irritancy)
1 | CCCCCCCCCCCCOS(=O)(=O)[O-].[Na+] [Sodium lauryl sulfate] | 9.37 | Moderate to mild (4-12)
2 | Cocamidopropyl betaine | 29.4 | Non-irritating (>24)
3 | Sodium laureth sulfate | 10.25 | Moderate to mild (4-12)
